Measurements as given in ChEMBL document CHEMBL2016493, “Design, synthesis, synergistic antimicrobial activity and cytotoxicity of 4-aryl substituted 3,4-dihydropyrimidinones of curcumin” (Bioorg Med Chem Lett, 2012).
The source made the active and inactive calls. The calls are words filed in the database; no cut-off is given here.

Columns and labels:
[1] = system: Curvularia lunata; assay: Antifungal activity against Curvularia lunata MTCC 581 at 40 uM/ml after 48 hrs by paper disc diffusion method; assay type: functional; conditions: MTCC 581, 48 h, read-out: IZ
[2] = system: Staphylococcus aureus; assay: Antibacterial activity against Staphylococcus aureus ATCC 11632 at 20 uM/ml after 24 hrs by kirby-bauer method; assay type: functional; conditions: ATCC 11632, 24 h, read-out: IZ
[3] = system: Staphylococcus aureus; assay: Antibacterial activity against Staphylococcus aureus ATCC 11632 at 40 uM/ml after 24 hrs by kirby-bauer method; assay type: functional; conditions: ATCC 11632, 24 h, read-out: IZ
[4] = system: Pseudomonas aeruginosa; assay: Antibacterial activity against Pseudomonas aeruginosa ATCC 15499 at 160 uM/ml after 24 hrs by kirby-bauer method; assay type: functional; conditions: ATCC 15499, 24 h, read-out: IZ
[5] = system: Salmonella typhimurium; assay: Antibacterial activity against Salmonella typhimurium ATCC 23564 at 160 uM/ml after 24 hrs by kirby-bauer method; assay type: functional, Salmonella enterica subsp. enterica serovar Typhimurium; conditions: Salmonella enterica, ATCC 23564, 24 h; read-out: IZ
[6] = system: Escherichia coli; assay: Antibacterial activity against Escherichia coli ATCC 35218 at 80 uM/ml after 24 hrs by kirby-bauer method; assay type: functional; conditions: ATCC 35218, 24 h, read-out: IZ
[7] = system: QG-56; assay: Cytotoxicity against human QG56 cells after 48 hrs by MTT assay; assay type: functional, cell-based
[8] = system: Aspergillus flavus; assay: Antifungal activity against Aspergillus flavus MTCC 1021 at 80 uM/ml after 48 hrs by paper disc diffusion method; assay type: functional; conditions: MTCC 1021, 48 h, read-out: IZ
[9] = system: Pseudomonas aeruginosa; assay: Antibacterial activity against Pseudomonas aeruginosa ATCC 15499 at 80 uM/ml after 24 hrs by kirby-bauer method; assay type: functional; conditions: ATCC 15499, 24 h, read-out: IZ
[10] = system: Trichoderma viride; assay: Antifungal activity against Trichoderma viride MTCC 1107 at 80 uM/ml after 48 hrs by paper disc diffusion method; assay type: functional; conditions: MTCC 1107, 48 h, read-out: IZ
[11] = system: Salmonella typhimurium; assay: Antibacterial activity against Salmonella typhimurium ATCC 23564 at 40 uM/ml after 24 hrs by kirby-bauer method; assay type: functional, Salmonella enterica subsp. enterica serovar Typhimurium; conditions: Salmonella enterica, ATCC 23564, 24 h; read-out: IZ
[12] = system: Trichoderma viride; assay: Antifungal activity against Trichoderma viride MTCC 1107 at 40 uM/ml after 48 hrs by paper disc diffusion method; assay type: functional; conditions: MTCC 1107, 48 h, read-out: IZ
[13] = system: Curvularia lunata; assay: Antifungal activity against Curvularia lunata MTCC 581 at 20 uM/ml after 48 hrs by paper disc diffusion method; assay type: functional; conditions: MTCC 581, 48 h, read-out: IZ
[14] = system: HCT-116
[15] = system: Aspergillus flavus; assay: Antifungal activity against Aspergillus flavus MTCC 1021 at 40 uM/ml after 48 hrs by paper disc diffusion method; assay type: functional; conditions: MTCC 1021, 48 h, read-out: IZ
[16] = system: Escherichia coli; assay: Antibacterial activity against Escherichia coli ATCC 35218 at 20 uM/ml after 24 hrs by kirby-bauer method; assay type: functional; conditions: ATCC 35218, 24 h, read-out: IZ
[17] = system: HepG2
[18] = system: Escherichia coli; assay: Antibacterial activity against Escherichia coli ATCC 35218 at 40 uM/ml after 24 hrs by kirby-bauer method; assay type: functional; conditions: ATCC 35218, 24 h, read-out: IZ
[19] = system: Aspergillus flavus; assay: Antifungal activity against Aspergillus flavus MTCC 1021 at 20 uM/ml after 48 hrs by paper disc diffusion method; assay type: functional
[20] = system: Staphylococcus aureus; assay: Antibacterial activity against Staphylococcus aureus ATCC 11632 at 80 uM/ml after 24 hrs by kirby-bauer method; assay type: functional; conditions: ATCC 11632, 24 h, read-out: IZ
[21] = system: Burkholderia pseudomallei; assay: Antibacterial activity against Burkholderia pseudomallei NTCC 10274 at 80 uM/ml after 24 hrs by kirby-bauer method; assay type: functional; conditions: NTCC 10274, 24 h, read-out: IZ
[22] = system: Aspergillus niger; assay: Antifungal activity against Aspergillus niger MTCC 1108 at 20 uM/ml after 48 hrs by paper disc diffusion method; assay type: functional
[23] = system: Trichoderma viride; assay: Antifungal activity against Trichoderma viride MTCC 1107 at 20 uM/ml after 48 hrs by paper disc diffusion method; assay type: functional; conditions: MTCC 1107, 48 h, read-out: IZ
[24] = system: Burkholderia pseudomallei; assay: Antibacterial activity against Burkholderia pseudomallei NTCC 10274 at 160 uM/ml after 24 hrs by kirby-bauer method; assay type: functional; conditions: NTCC 10274, 24 h, read-out: IZ
[25] = system: Burkholderia pseudomallei; assay: Antibacterial activity against Burkholderia pseudomallei NTCC 10274 at 40 uM/ml after 24 hrs by kirby-bauer method; assay type: functional; conditions: NTCC 10274, 24 h, read-out: IZ
[26] = system: Escherichia coli; assay: Antibacterial activity against Escherichia coli ATCC 35218 at 160 uM/ml after 24 hrs by kirby-bauer method; assay type: functional; conditions: ATCC 35218, 24 h, read-out: IZ
[27] = system: Curvularia lunata; assay: Antifungal activity against Curvularia lunata MTCC 581 at 80 uM/ml after 48 hrs by paper disc diffusion method; assay type: functional; conditions: MTCC 581, 48 h, read-out: IZ
[28] = system: Pseudomonas aeruginosa; assay: Antibacterial activity against Pseudomonas aeruginosa ATCC 15499 at 20 uM/ml after 24 hrs by kirby-bauer method; assay type: functional; conditions: ATCC 15499, 24 h, read-out: IZ
[29] = system: Salmonella typhimurium; assay: Antibacterial activity against Salmonella typhimurium ATCC 23564 at 80 uM/ml after 24 hrs by kirby-bauer method; assay type: functional, Salmonella enterica subsp. enterica serovar Typhimurium; conditions: Salmonella enterica, ATCC 23564, 24 h; read-out: IZ
[30] = system: Aspergillus niger; assay: Antifungal activity against Aspergillus niger MTCC 1108 at 160 uM/ml after 48 hrs by paper disc diffusion method; assay type: functional
[31] = system: Aspergillus niger; assay: Antifungal activity against Aspergillus niger MTCC 1108 at 40 uM/ml after 48 hrs by paper disc diffusion method; assay type: functional
[32] = system: Trichoderma viride; assay: Antifungal activity against Trichoderma viride MTCC 1107 at 160 uM/ml after 48 hrs by paper disc diffusion method; assay type: functional; conditions: MTCC 1107, 48 h, read-out: IZ
[33] = system: Aspergillus niger; assay: Antifungal activity against Aspergillus niger MTCC 1108 at 80 uM/ml after 48 hrs by paper disc diffusion method; assay type: functional; conditions: MTCC 1108, 48 h, read-out: IZ
[34] = system: Aspergillus flavus; assay: Antifungal activity against Aspergillus flavus MTCC 1021 at 160 uM/ml after 48 hrs by paper disc diffusion method; assay type: functional
[35] = system: Salmonella typhimurium; assay: Antibacterial activity against Salmonella typhimurium ATCC 23564 at 20 uM/ml after 24 hrs by kirby-bauer method; assay type: functional, Salmonella enterica subsp. enterica serovar Typhimurium; conditions: Salmonella enterica, ATCC 23564, 24 h; read-out: IZ
[36] = system: Curvularia lunata; assay: Antifungal activity against Curvularia lunata MTCC 581 at 160 uM/ml after 48 hrs by paper disc diffusion method; assay type: functional; conditions: MTCC 581, 48 h, read-out: IZ
[37] = system: Staphylococcus aureus; assay: Antibacterial activity against Staphylococcus aureus ATCC 11632 at 160 uM/ml after 24 hrs by kirby-bauer method; assay type: functional; conditions: ATCC 11632, 24 h, read-out: IZ
[38] = system: Burkholderia pseudomallei; assay: Antibacterial activity against Burkholderia pseudomallei NTCC 10274 at 20 uM/ml after 24 hrs by kirby-bauer method; assay type: functional; conditions: NTCC 10274, 24 h, read-out: IZ
[39] = system: Pseudomonas aeruginosa; assay: Antibacterial activity against Pseudomonas aeruginosa ATCC 15499 at 40 uM/ml after 24 hrs by kirby-bauer method; assay type: functional; conditions: ATCC 15499, 24 h, read-out: IZ
[40] = system: Aspergillus niger; assay: Antifungal activity against Aspergillus niger MTCC 1108 after 48 hrs by poison food method; assay type: functional

COc1cc(/C=C/C(=O)C2=C(/C=C/c3ccc(O)c(OC)c3)NC(=O)NC2c2ccc(O)cc2)ccc1O (stereo not given)
zone of inhibition at 40 µM [1]: 20 mm
zone of inhibition at 20 µM [2]: 16 mm
zone of inhibition at 40 µM [3]: 19 mm
zone of inhibition at 160 µM [4]: 22 mm
zone of inhibition at 160 µM [5]: 18 mm
zone of inhibition at 80 µM [6]: 18 mm
IC50 [7]: 50 uM/ml
zone of inhibition at 80 µM [8]: 11 mm
zone of inhibition at 80 µM [9]: 19 mm
zone of inhibition at 80 µM [10]: 14 mm
zone of inhibition at 40 µM [11]: 13 mm
zone of inhibition [12]: 11 mm
zone of inhibition at 20 µM [13]: 18 mm
IC50 [14]: 12.5 uM/ml
zone of inhibition at 40 µM [15]: 9 mm
zone of inhibition at 20 µM [16]: 12 mm
IC50 [17]: 25 uM/ml
zone of inhibition at 40 µM [18]: 14 mm
inhibition zone (IZ) [19]: inactive
zone of inhibition at 80 µM [20]: 22 mm
zone of inhibition at 80 µM [21]: 15 mm
inhibition zone (IZ) [22]: inactive
zone of inhibition at 20 µM [23]: 9 mm
zone of inhibition at 160 µM [24]: 19 mm
zone of inhibition at 40 µM [25]: 11 mm
zone of inhibition at 160 µM [26]: 22 mm
zone of inhibition at 80 µM [27]: 20 mm
zone of inhibition at 20 µM [28]: 17 mm
zone of inhibition at 80 µM [29]: 16 mm
zone of inhibition at 160 µM ([30]; MTCC 1108, 48 h, read-out: IZ): 11 mm
inhibition zone (IZ) [31]: inactive
zone of inhibition at 160 µM [32]: 16 mm
zone of inhibition at 80 µM [33]: 9 mm
zone of inhibition at 160 µM ([34]; MTCC 1021, 48 h, read-out: IZ): 13 mm
zone of inhibition at 20 µM [35]: 9 mm
zone of inhibition at 160 µM [36]: 21 mm
zone of inhibition at 160 µM [37]: 24 mm
zone of inhibition at 20 µM [38]: 9 mm
zone of inhibition at 40 µM [39]: 19 mm

OC(Cn1cncn1)(Cn1cncn1)c1ccc(F)cc1F [FLUCONAZOLE]
zone of inhibition at 40 µM [1]: 27 mm
zone of inhibition at 80 µM [10]: 29 mm
zone of inhibition [12]: 24 mm
zone of inhibition at 20 µM [13]: 24 mm
zone of inhibition at 20 µM [23]: 21 mm
zone of inhibition at 80 µM [27]: 28 mm
inhibition zone (IZ) [30]: inactive
zone of inhibition at 160 µM [32]: 32 mm
inhibition zone (IZ) [34]: inactive
zone of inhibition at 160 µM [36]: 31 mm
MIC [40]: inactive
